From patent US20240327407A1, “NOVEL INHIBITORS OF AUTOTAXIN” (CADILA HEAL THCARE LIMITED, priority 2021, published 2024)

Biological target: ATX (Mus musculus (Mouse), UniProt Q9R1E6)
Test: Mice serum ATX inhibitory activity (IC50 determination)
Format: biochemical
Protocol: ATX Inhibitory activity was determined in a biochemical or whole blood assay as described previously (Bretschneider, T. et al., SLAS Discov 2017, 22, 425). The biochemical reaction consisted of 50 mM Tris (pH 8.0), 3 mM KCl, 1 mM CaCl2, 1 mM Mg Cl2, […] NaCl and 0.1% bovine serum albumin, which was supplemented with 5 nM recombinant rat ATX, 5 μM 18:1 LPC and the test compound (0.1-10 μM). The reaction was stopped at 2 h by the addition of butanol, prior to the RapidFire-MS-based analysis.
The whole blood assay consisted of 45 μL μL heparinized mice/rat whole blood and the test compound (0.12-100 μM). The reaction was stopped after 1 h at 37° C. by addition of 100 μL 40 mM disodium hydrogen phosphate buffer containing 30 mM citric acid (pH 4) and 1 μM 17:0 LPA (internal standard). Afterwards the samples were treated a described above and analysed by LC-MS/MS. The data was analyzed using graph pad prism (v 7.03) to arrive at the half-maximal inhibitory concentrations (IC50) of the test compounds.

Row | IC50 [µM] | Compound
1 | 0.0093 | COc1ccc(C2CN(C)CC23CCN(C(=O)[C@H](NC(=O)c2cc(C)ccc2F)C(C)C)CC3)cc1 (stereo partly drawn) [Compound 123, 2-fluoro-N-((2R)-1-(4-(4-methoxyphenyl)-2-methyl-2,8-diazaspiro[4.5]decan-8-yl)-3-methyl-1-oxobutan-2-yl)-5-methylbenzamide]
2 | 0.0034 | Cc1ccnc(C(=O)N[C@@H](C(=O)N2CCC3(CC2)CN(C)CC3c2ccc(F)cc2)C(C)C)c1 (stereo partly drawn) [Compound 129, N-((2R)-1-(4-(4-fluorophenyl)-2-methyl-2,8-diazaspiro-[4.5]decan-8-yl)-3-methyl-1-oxobutan-2-yl)-4-methylpicolinamide]
3 | 0.0597 | COC(=O)N1CC(c2ccc(F)cc2)C2(CCN(C(=O)[C@H](NC(=O)c3cc(C(F)(F)F)ccc3F)C(C)C)CC2)C1 (stereo partly drawn) [Compound 130, methyl 8-((2-fluoro-5-(trifluoromethyl)benzoyl)-D-valyl)-4-(4-fluorophenyl)-2,8-diazaspiro[4.5]decane-2-carboxylate]
4 | 0.15 | CCOC(=O)N1CC(c2ccc(F)cc2)C2(CCN(C(=O)[C@H](NC(=O)c3cc(C(F)(F)F)ccc3F)C(C)C)CC2)C1 (stereo partly drawn) [Compound 131, ethyl 8-((2-fluoro-5-(trifluoromethyl)benzoyl)-D-valyl)-4-(4-fluorophenyl)-2,8-diazaspiro[4.5]decane-2-carboxylate]
5 | 0.0011 | CC(C)[C@@H](NC(=O)c1cc(C(F)(F)F)ccc1F)C(=O)N1CCC2(CC1)CN(C)CC2c1ccc(C(=O)O)cc1 (stereo partly drawn) [Compound 132, 4-(8-((2-fluoro-5-(trifluoromethyl)benzoyl)-D-valyl)-2-methyl-2,8-diazaspiro[4.5]decan-4-yl)benzoic acid]
6 | 0.012 | CC(C)[C@@H](NC(=O)c1cc(C(F)(F)F)ccc1F)C(=O)N1CCC2(CC1)CN(C)C[C@@H]2c1ccc(F)cc1 [Compound 133, 2-fluoro-N-((R)-1-((R)-4-(4-fluorophenyl)-2-methyl-2,8-diazaspiro[4.5]decan-8-yl)-3-methyl-1-oxobutan-2-yl)-5-(trifluoromethyl)benzamide]
7 | 0.0078 | CC(C)[C@@H](NC(=O)c1cc(C(F)(F)F)ccc1F)C(=O)N1CCC2(CC1)CN(C)C[C@H]2c1ccc(F)cc1 [Compound 134, 2-fluoro-N-((R)-1-((S)-4-(4-fluorophenyl)-2-methyl-2,8-diazaspiro[4.5]decan-8-yl)-3-methyl-1-oxobutan-2-yl)-5-(trifluoromethyl)benzamide]
8 | 0.0022 | Cc1ccc(C2CN(C)CC23CCN(C(=O)[C@H](NC(=O)c2cc(C(F)(F)F)ccc2F)C(C)C)CC3)cc1 (stereo partly drawn) [Compound 136, 2-fluoro-N-((2R)-3-methyl-1-(2-methyl-4-(p-tolyl)-2,8-diazaspiro[4.5]decan-8-yl)-1-oxobutan-2-yl)-5-(trifluoromethyl)benzamide]
9 | 0.0404 | Cc1cc(C)cc(C2CN(C)CC23CCN(C(=O)[C@H](NC(=O)c2cc(C(F)(F)F)ccc2F)C(C)C)CC3)c1 (stereo partly drawn) [Compound 138, N-((2R)-1-(4-(3,5-dimethylphenyl)-2-methyl-2,8-diazaspiro[4.5]decan-8-yl)-3-methyl-1-oxobutan-2-yl)-2-fluoro-5-(trifluoromethyl)benzamide]
10 | 0.0115 | CN1CC(c2ccc(F)cc2)C2(CCN(C(=O)[C@H](NC(=O)c3cc(C(F)(F)F)ccc3F)c3ccccc3)CC2)C1 (stereo partly drawn) [Compound 140, 2-fluoro-N-((1R)-2-(4-(4-fluorophenyl)-2-methyl-2,8-diazaspiro[4.5]decan-8-yl)-2-oxo-1-phenylethyl)-5-(trifluoromethyl)benzamide]
11 | 0.0044 | CN1CC(c2ccc(F)cc2)C2(CCN(C(=O)[C@H](NC(=O)c3cc(C(F)(F)F)ccc3F)C3CCCCC3)CC2)C1 (stereo partly drawn) [Compound 142, N-((1R)-1-cyclohexyl-2-(4-(4-fluorophenyl)-2-methyl-2,8-diazaspiro[4.5]decan-8-yl)-2-oxoethyl)-2-fluoro-5-(trifluoromethyl)benzamide]
12 | 0.0041 | CC(C)C[C@@H](NC(=O)c1cc(C(F)(F)F)ccc1F)C(=O)N1CCC2(CC1)CN(C)CC2c1ccc(F)cc1 (stereo partly drawn) [Compound 147, 2-fluoro-N-((2R)-1-(4-(4-fluorophenyl)-2-methyl-2,8-diazaspiro[4.5]decan-8-yl)-4-methyl-1-oxopentan-2-yl)-5-(trifluoromethyl)benzamide]
13 | 0.0473 | CC(C)[C@@H](NC(=O)c1cc(F)ccc1F)C(=O)N1CCC2(CC1)CN(C)CC2c1ccc(F)cc1 (stereo partly drawn) [Compound 149, 2,5-difluoro-N-((2R)-1-(4-(4-fluorophenyl)-2-methyl-2,8-diazaspiro[4.5]decan-8-yl)-3-methyl-1-oxobutan-2-yl)benzamide]
14 | 0.13 | CC(C)[C@@H](NC(=O)c1cc(Cl)ccc1Cl)C(=O)N1CCC2(CC1)CN(C)CC2c1ccc(F)cc1 (stereo partly drawn) [Compound 151, 2,5-dichloro-N-((2R)-1-(4-(4-fluorophenyl)-2-methyl-2,8-diazaspiro[4.5]decan-8-yl)-3-methyl-1-oxobutan-2-yl)benzamide]
15 | 0.0102 | Cc1ccnc(C(=O)N[C@@H](C(=O)N2CCC3(CC2)CN(C)CC3c2cccnc2)C(C)C)c1 (stereo partly drawn) [Compound 162, 4-methyl-N-((2R)-3-methyl-1-(2-methyl-4-(pyridin-3-yl)-2,8-diazaspiro[4.5]decan-8-yl)-1-oxobutan-2-yl)picolinamide]
16 | 0.0035 | CC(C)[C@@H](NC(=O)c1cc(C(F)(F)F)ccc1F)C(=O)N1CCC2(CC1)CC(=O)NCC2c1ccccc1 (stereo partly drawn) [Compound 163, 2-fluoro-N-((2R)-3-methyl-1-oxo-1-(10-oxo-7-phenyl-3,9-diazaspiro[5.5]undecan-3-yl)butan-2-yl)-5-(trifluoromethyl)benzamide]
17 | 0.0065 | CC(C)[C@@H](NC(=O)c1cc(C(F)(F)F)ccc1F)C(=O)N1CCC2(CC1)CC(=O)NCC2c1ccc(F)cc1 (stereo partly drawn) [Compound 164, 2-fluoro-N-((2R)-1-(7-(4-fluorophenyl)-10-oxo-3,9-diazaspiro[5.5]undecan-3-yl)-3-methyl-1-oxobutan-2-yl)-5-(trifluoromethyl)benzamide]
18 | 0.0112 | CC(C)[C@@H](NC(=O)c1cc(C(F)(F)F)ccc1F)C(=O)N1CCC2(CC1)CC(=O)N(C)CC2c1ccccc1 (stereo partly drawn) [Compound 174, 2-fluoro-N-((2R)-3-methyl-1-(9-methyl-10-oxo-7-phenyl-3,9-diazaspiro[5.5]undecan-3-yl)-1-oxobutan-2-yl)-5-(trifluoromethyl)benzamide]
19 | 0.0075 | CC(C)[C@@H](NC(=O)c1cc(C(F)(F)F)ccc1F)C(=O)N1CCC2(CC1)CC(=O)N(C)CC2c1ccc(F)cc1 (stereo partly drawn) [Compound 176, 2-fluoro-N-((2R)-1-(7-(4-fluorophenyl)-9-methyl-10-oxo-3,9-diazaspiro[5.5]undecan-3-yl)-3-methyl-1-oxobutan-2-yl)-5-(trifluoromethyl)benzamide]
20 | 0.0172 | CCN1CC(c2ccc(F)cc2)C2(CCN(C(=O)[C@H](NC(=O)c3cc(C(F)(F)F)ccc3F)C(C)C)CC2)CC1=O (stereo partly drawn) [Compound 177, N-((2R)-1-(9-ethyl-7-(4-fluorophenyl)-10-oxo-3,9-diazaspiro[5.5]undecan-3-yl)-3-methyl-1-oxobutan-2-yl)-2-fluoro-5-]
21 | 0.012 | CC(C)[C@H](NC(=O)c1cc(C(F)(F)F)ccc1F)C(=O)N1CCC2(CC1)CC(=O)N(C)CC2c1ccccc1 (stereo partly drawn) [Compound 185, 2-fluoro-N-((2S)-3-methyl-1-(9-methyl-10-oxo-7-phenyl-3,9-diazaspiro-[5.5]undecan-3-yl)-1-oxobutan-2-yl)-5-(trifluoromethyl)benzamide]
22 | 0.0159 | Cc1ccnc(C(=O)N[C@@H](C(=O)N2CCC3(CC2)CC(=O)N(C)CC3c2ccccc2)C(C)C)c1 (some centres unmarked) [Compound 194]
23 | 0.0099 | CC(C)[C@@H](NC(=O)c1cc(C(F)(F)F)ccc1F)C(=O)N1CCC2(CCN(C)CC2c2ccccc2)CC1 (stereo partly drawn) [Compound 220, 2-fluoro-N-((2R)-3-methyl-1-(9-methyl-7-phenyl-3,9-diazaspiro[5.5]-undecan-3-yl)-1-oxobutan-2-yl)-5-(trifluoromethyl)benzamide]
24 | 0.0051 | CC(C)[C@@H](NC(=O)c1cc(C(F)(F)F)ccc1F)C(=O)N1CCC2(CCN(C)CC2c2ccc(F)cc2)CC1 (stereo partly drawn) [Compound 221, 2-fluoro-N-((2R)-1-(7-(4-fluorophenyl)-9-methyl-3,9-diazaspiro[5.5]-undecan-3-yl)-3-methyl-1-oxobutan-2-yl)-5-(trifluoromethyl)benzamide]
25 | 0.508 | CCc1nc2c(C)cc(N3CCN(CC(=O)N4CC(O)C4)CC3)cn2c1N(C)c1nc(-c2ccc(F)cc2)c(C#N)s1 [GLPG1690]

Row | Compound | IC50 [µM]
26 | CC(C)[C@@H](NC(=O)c1nn(C)c2ccccc12)C(=O)N1CCC2(CC1)CN(C)CC2c1ccc(F)cc1 (stereo partly drawn) [Compound 153, N-((2R)-1-(4-(4-fluorophenyl)-2-methyl-2,8-diazaspiro[4.5]decan-8-yl)-3-methyl-1-oxobutan-2-yl)-1-methyl-1H-indazole-3-carboxamide] | 0.0484
